Assay results: patent US9499493B2, “2,4-pyrimidinediamine compounds and their uses” (Rigel Pharmaceuticals, Inc., priority 2002, dated 2016)
Where a name gives a salt, the structure may show the parent alone.

Tests used:
[1] = tested on: cultured human mast cells (CHMC); experiment: CHMC low cell density IgE activation: tryptase assay; assay type: cell-based; settings: anti-IgE
In short: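 Read-out: tryptase released into supernatant, measured by substrate turnover over 30 min at RT. Low-density CHMC (1000-1500 cells/well, per donor degranulation activity) in MT buffer, 1 hr at 37° C, then anti-IgE challenge 30 min at 37° C.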

[2] = tested on: cultured human mast cells (CHMC); experiment: CHMC low cell density ionomycin activation: tryptase assay; assay type: cell-based

Row | Compound | IC50 [1] | IC50 [2] | IC50 ([2]; Homo sapiens, Mast cell)
1 | 5-Cyano-N2-(3,4-ethylenedioxyphenyl)-N4-(methoxycarbonylbenzyl)-2,4-pyrimidinediamine [R925820] | > 10 µM | > 10 µM | 
2 | 5-Cyano-N2-(3-hydroxyphenyl)-N4-(methoxycarbonylbenzyl)-2,4-pyrimidinediamine [R925821] | > 10 µM | > 10 µM | 
3 | 5-Fluoro N4-(3-hydroxyphenyl)-N2-(5-methyl-4-oxazolyl-2-phenyl)-2,4-pyrimidinediamine [R926779] | > 10 µM | > 10 µM | 
4 | CC1Sc2ccc(Nc3ncc(F)c(Nc4cccc(O)c4)n3)cc2NC1=O (racemic) [R909263, (+/−)-5-Fluoro-N4-(3-hydroxyphenyl]-N2-(2-methyl-1,4-benzothiazin-3-on-6-yl)pyrimidinediamine] | 0.289 µM | > 10 µM | 
5 | CNC(=O)COc1cccc(Nc2ncc(F)c(Nc3cccc4c3C(=O)N(C)C4=O)n2)c1 [R926856, 5-Fluoro-N2-[3-(N-methylamino)carbonylmethyleneoxyphenyl]-N4-(N-methylphthalimido-4-yl)-2,4-pyrimidinediamine] |  | > 10 µM | 
6 | CNC(=O)COc1cccc(Nc2ncc(F)c(Nc3ccc(OC)c(Cl)c3)n2)c1 [R926891, N4-(3-Chloro-4-methoxyphenyl)-5-fluoro-N2-[3-[(N-methylamino)carbonylmethyleneoxy]phenyl]-2,4-pyrimidinediamine] |  | > 10 µM | 
7 | CNC(=O)COc1cccc(Nc2ncc(F)c(Nc3ccc(OC)c(F)c3)n2)c1 [R926892, 5-Fluoro-N4-(3-fluoro-4-methoxyphenyl)-N2-[3-[(N-methylamino)carbonylmethyleneoxy]phenyl]-2,4-pyrimidinediamine] |  | > 10 µM | 
8 | CNC(=O)C(C)(C)Oc1cccc(Nc2ncc(F)c(Nc3cccc(O)c3)n2)c1 [R926913, 5-Fluoro-N4-(3-hydroxyphenyl)-N2-[3-[(N-methylamino)carbonyl-1,1-dimethylmethyleneoxy]phenyl]-2,4-pyrimidinediamine] |  | > 10 µM | 
9 | CNC(=O)COc1cc(Nc2ncc(F)c(Nc3cccc(O)c3)n2)cc(OCC(=O)NC)c1 [R926930, N2-[3,5-Bis[(N-methylamino)carbonylmethyleneoxy]phenyl]-5-fluoro-N4-(3-hydroxyphenyl)-2,4-pyrimidinediamine] |  | > 10 µM | 
10 | Cc1noc(COc2ccc(Nc3nc(Nc4ccc5c(c4)OCCO5)ncc3F)cc2)n1 [R935145, N2-(3,4-Ethylenedioxyphenyl)-5-fluoro-N4-[4-(3-methyl-1,2,4-oxadiazol-5-yl)methyleneoxyphenyl]-2,4-pyrimidinediamine] |  | > 10 µM | 
11 | CNC(=O)C(C)(Oc1cccc(Nc2ncc(F)c(Nc3ccc(OC(C)C)cc3)n2)c1)C(=O)NC [R935196, N2-[3-(1-Bis(N-methylaminocarbonyl)ethoxy)phenyl]-5-fluoro-N4-(4-isopropoxyphenyl)-2,4-pyrimidineamine] |  | > 10 µM | 
12 | Oc1cccc(Nc2nc(Nc3ccc4[nH]ncc4c3)ncc2F)c1 [R935199, 5-Fluoro-N4-(3-hydroxyphenyl)-N2-(indazoline-5-yl)-2,4-pyrimidinediamine] |  | > 10 µM | 
13 | CCOC(=O)CCn1ncc2ccc(Nc3nc(Nc4cccc(O)c4)ncc3F)cc21 [R935292, N4-[1-(2-Ethoxycarbonylethyl)indazoline-6-yl]-5-fluoro-N2-(3-hydroxyphenyl)-2,4-pyrimidinediamine] |  | > 10 µM | 
14 | OCCCn1ncc2ccc(Nc3ncc(F)c(Nc4cccc(O)c4)n3)cc21 [R935293, 5-Fluoro-N4-(3-hydroxyphenyl)-N2-[1-(3-hydroxypropyl)indazoline-6-yl]-2,4-pyrimidinediamine] |  | > 10 µM | 
15 | COC(=O)c1cc2cc(Nc3ncc(F)c(Nc4ccc5cnn(CCC(=O)O)c5c4)n3)ccc2o1 [R935296, N4-[1-(2-carboxyethyl)indazolne-6-yl]-5-fluoro-N2-(2-methoxycarbonylbenzofur-5-yl)-2,4-pyrimidinediamine] |  | > 10 µM | 
16 | COC(=O)c1ccc(Cn2cc3ccc(Nc4ncc(F)c(Nc5ccc6c(c5)OCCO6)n4)cc3n2)c(OC)c1 [R935336, N4-(3,4-Ethylenedioxyphenyl)-5-fluoro-N2-[2-(2-methoxy-4-carbomethoxybenzyl)indazoline-6-yl]-2,4-pyrimidinediamine] |  | > 10 µM | 
17 | CCOC(=O)CCn1ncc2cc(Nc3ncc(F)c(Nc4ccc(OC(F)(F)F)c(Cl)c4)n3)ccc21 [R935354, N4-(3-Chloro-4-trifluoromethoxy-phenyl)-N2-[1-(2-ethoxycarbonylethyl)indazoline-5-yl]-5-fluoro-2,4-pyrimidinediamine] |  | > 10 µM | 
18 | Cn1ncc2cc(Nc3ncc(F)c(Nc4ccc5c(c4)OC(F)(F)O5)n3)ccc21 [R935357, N4-(3,4-Difluoromethylendioxyphenyl)-5-fluoro-N2-(1-methylindazoline-5-yl)-2,4-pyrimidinediamine] |  | > 10 µM | 
19 | Fc1cnc(Nc2ccc3cn[nH]c3c2)nc1Nc1cccc(OC(F)(F)F)c1 [R935363, 5-Fluoro-N2-(indazoline-6-yl)-N4-(3-trifluoromethoxyphenyl)-2,4-pyrimidinediamine] |  | > 10 µM | 

Row | Compound | IC50 [1] | IC50 [2] | IC50 ([2]; Homo sapiens, Mast cell)
20 | COc1cc(Nc2ncc(F)c(Nc3ccc(OCc4nc(-c5ccccc5)no4)cc3)n2)cc(OC)c1OC [R935367, 5-Fluoro-N4-[4-(3-phenyl-1,2,4-oxadiazol-5-yl)methyleneoxyphenyl]-N2-(3,4,5-trimethoxyphenyl)-2,4-pyrimidinediamine] |  | > 10 µM | 
21 | CNC(=O)CCn1ncc2cc(Nc3ncc(F)c(Nc4ccc(OC(F)(F)F)c(Cl)c4)n3)ccc21 [R935369, N4-(3-Chloro-4-trifluoromethoxyphenyl)-5-fluoro-N2-[1-[2(N-methylaminocarbonyl)ethyl]indazoline-5-yl]-2,4-pyrimidinediamine] |  | > 10 µM | 
22 | Cc1cc(Nc2nc(Nc3cccc(OCCN4CCOCC4)c3)ncc2F)cc(C)c1O [R940255, N4-(3,5-Dimethyl-4-hydroxyphenyl)-5-fluoro-N2-[3-[2-(N-morpholino)ethyleneoxy]phenyl]-2,4-pyrimidinediamine] |  | > 10 µM | 
23 | Cc1cc(Nc2nc(Nc3cccc(OCCN4CCOCC4)c3)ncc2F)cc(C)c1O [R940256, N4-(3,5-Dimethyl-4-hydroxyphenyl)-5-fluoro-N2-[3-[2-(N-morpholino)ethyloxy]phenyl]-2,4-pyrimidinediamine Hydrogen Chloride Salt] |  | > 10 µM | 
24 | CC(C)(CO)NC(=O)COc1cccc(Nc2ncc(F)c(Nc3cccc(C(C)(C)C)c3)n2)c1 [R940308, N4-(3-tert-Butylpheny)-5-fluoro-N2-[3-(1,1-dimethyl-2-hydroxyethylaminocarbonylmethyleneoxy)-phenyl]-2,4-pyrimidinediamine] |  | 4.17 µM | 
25 | N#CCOc1ccc(Nc2ncc(F)c(Nc3cccc(O)c3)n2)cc1 [R945070, N2-(4-Cyanomethyleneoxyphenyl)-5-fluoro-N4-(3-hydroxyphenyl)-2,4-pyrimidinediamine] |  | > 10 µM | 
26 | COC(=O)COc1ccc(Nc2ncc(F)c(Nc3cccc(C#N)c3)n2)cc1 [R945110, N4-(3-Cyanophenyl)-5-fluoro-N2-(4-methoxycarbonylmethyleneoxyphenyl)-2,4-pyrimidinediamine] |  | > 10 µM | 
27 | OCCNc1cccc(Nc2ncc(F)c(Nc3cccc(NCCO)c3)n2)c1 [R950181, N2,N4-Bis(3-hydroxyethyleneaminophenyl)-5-fluoro-2,4-pyrimidinediamine] |  | > 10 µM | 
28 | O=C(CNc1cccc(Nc2ncc(F)c(Nc3ccc4c(c3)OCCO4)n2)c1)NCCO [R950195, N4-(3,4-Ethylenedioxyphenyl)-5-fluoro-N2-[3-(N-2-hydroxyethyleneamino)carbonylmethyleneaminophenyl]-5-fluoro-2,4-pyrimidinediamine] |  | > 10 µM | 
29 | CSc1nc2ccc(Nc3ncc(F)c(Nc4cccc(O)c4)n3)cc2s1 [R950212, 5-Fluoro-N4-(3-hydroxyphenyl)-N2-[2-(methylthio)-1,3-benzothiaz-6-yl)-2,4-pyrimidinediamine] |  | > 10 µM | 
30 | CNC(=O)CNc1cccc(Nc2ncc(F)c(Nc3cccc(O)c3)n2)c1 [R950218] |  |  | > 10 µM
31 | CNC(=O)COc1cccc(Nc2ncc(F)c(Nc3cccc([N+](=O)[O-])c3)n2)c1 [R950261, N4-(3-Nitrophenyl)-5-fluoro-N2-[3-(N-methylamino)carbonylmethyleneoxyphenyl]-2,4-pyrimidinediamine] |  | > 10 µM | 
32 | CNC(=O)COc1cccc(Nc2ncc(F)c(Nc3cccc(NCCO)c3)n2)c1 [R950265, N4-(3-N-Hydroxyethylaminophenyl)-5-fluoro-N2-[3-(N-methylamino)carbonylmethyleneoxyphenyl]-2,4-pyrimidinediamine] |  | > 10 µM | 
33 | CNC(=O)COc1cccc(Nc2ncc(F)c(Nc3cccc(N(CCO)CCO)c3)n2)c1 [R950266, N4-(3-Bis(N-hydroxyethyl)aminophenyl)-5-fluoro-N2-[3-(N-methylamino)carbonylmethyleneoxyphenyl]-2,4-pyrimidinediamine] |  | > 10 µM | 
34 | CNC(=O)COc1cccc(Nc2ncc(F)c(Nc3ccc4c(c3)C(N)CCO4)n2)c1 (centres unmarked) [R950368, N4-(4-Amino-3,4-dihydro-2H-1-benzopyran-6-yl)-5-fluoro-N2-[3-(N-methylamino)carbonylmethyleneoxyphenyl]-2,4-pyrimidinediamine] |  | > 10 µM | 
35 | CNC(=O)COc1cccc(Nc2ncc(F)c(Nc3ccc4c(c3)C(N=[N+]=[N-])CCO4)n2)c1 (centres unmarked) [R950383, N4-(4-Azido-3,4-dihydro-2H-1-benzopyran-6-yl)-5-fluoro-N2-[3-(N-methylamino)carbonylmethyleneoxyphenyl]-2,4-pyrimidinediamine] |  | > 10 µM | 
36 | CCOc1ccc(Nc2nc(Nc3cccc(OCC(=O)NC)c3)ncc2F)cc1S(=O)(=O)O [R950389, N4-(4-Ethoxy-3-hydroxysulfonylphenyl)-5-fluoro-N2-[3-(N-methylamino)carbonylmethyleneoxyphenyl]-2,4-pyrimidinediamine] |  | > 10 µM | 
37 | N4-(3,4-Ethylenedioxyphenyl)-5-fluoro-N2-[3-(2-N-methylaminoethyl)phenyl]-2,4-pyrimidinediamine Hydrogen Chloride Salt [R926509] |  | > 10 µM | 
